Experimental data published in ChEMBL document CHEMBL2176887, “Chemokine receptor antagonists” (J Med Chem, 2012).

Experiments:
[1] = target: T1, Muscarinic acetylcholine receptor M2 (Homo sapiens, UniProt P08172)
T1 sequence (P08172 whole entry): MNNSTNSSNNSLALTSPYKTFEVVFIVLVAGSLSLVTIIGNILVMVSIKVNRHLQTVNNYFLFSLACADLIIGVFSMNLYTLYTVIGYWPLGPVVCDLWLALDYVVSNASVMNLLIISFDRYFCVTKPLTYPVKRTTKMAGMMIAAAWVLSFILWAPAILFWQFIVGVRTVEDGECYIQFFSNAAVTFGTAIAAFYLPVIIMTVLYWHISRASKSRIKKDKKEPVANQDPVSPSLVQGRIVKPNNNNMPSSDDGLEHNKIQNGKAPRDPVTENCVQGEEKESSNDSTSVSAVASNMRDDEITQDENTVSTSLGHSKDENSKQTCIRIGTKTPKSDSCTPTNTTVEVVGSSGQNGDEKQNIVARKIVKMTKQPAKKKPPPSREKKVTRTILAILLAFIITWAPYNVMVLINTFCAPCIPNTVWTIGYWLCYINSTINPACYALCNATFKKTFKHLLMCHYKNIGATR
Description: Binding affinity to muscarinic M2 receptor

[2] = target: C-C chemokine receptor type 5 (Homo sapiens, UniProt P51681)
[3] = physchem; conditions: octanol/water
Description: Lipophilicity, log P of the compound

[4] = target: T2, C-C chemokine receptor type 1 (Homo sapiens, UniProt P32246)
T2 sequence (P32246 whole entry): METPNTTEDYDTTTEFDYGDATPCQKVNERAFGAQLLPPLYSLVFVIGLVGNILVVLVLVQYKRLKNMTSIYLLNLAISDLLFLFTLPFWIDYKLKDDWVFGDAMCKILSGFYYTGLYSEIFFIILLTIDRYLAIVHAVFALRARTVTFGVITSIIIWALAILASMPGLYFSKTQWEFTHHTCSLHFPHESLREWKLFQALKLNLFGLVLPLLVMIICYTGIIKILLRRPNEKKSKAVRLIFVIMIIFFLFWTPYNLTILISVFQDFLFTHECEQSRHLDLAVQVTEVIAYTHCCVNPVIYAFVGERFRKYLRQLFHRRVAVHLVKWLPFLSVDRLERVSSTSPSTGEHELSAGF

[5] = target: T2, C-C chemokine receptor type 1; experiment: Antagonist activity at CCR1; format: functional
[6] = Half life in dog; format: ADME, organism-based, Canis lupus familiaris; conditions: in vivo
[7] = target: T3, C-C chemokine receptor type 3 (Homo sapiens, UniProt P51677)
T3 sequence (P51677 whole entry): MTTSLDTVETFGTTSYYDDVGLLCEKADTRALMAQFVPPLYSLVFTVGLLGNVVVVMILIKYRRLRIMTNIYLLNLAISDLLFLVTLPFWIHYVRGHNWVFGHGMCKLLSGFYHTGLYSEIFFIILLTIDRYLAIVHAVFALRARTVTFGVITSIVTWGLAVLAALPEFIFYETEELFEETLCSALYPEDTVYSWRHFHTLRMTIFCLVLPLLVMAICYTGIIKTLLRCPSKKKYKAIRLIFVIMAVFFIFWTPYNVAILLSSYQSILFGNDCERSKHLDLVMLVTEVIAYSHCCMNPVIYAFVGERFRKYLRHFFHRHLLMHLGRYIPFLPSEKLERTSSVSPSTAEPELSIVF

[8] = Oral bioavailability in dog; format: ADME, organism-based, Canis lupus familiaris; conditions: in vivo
[9] = target: T3, C-C chemokine receptor type 3; experiment: Antagonist activity at human CCR3 assessed as inhibition of CCL11-induced calcium influx by cell based assay; format: functional
[10] = target: T4, Histamine H1 receptor (Homo sapiens, UniProt P35367); experiment: Antagonist activity at histamine H1 receptor expressed in human PC3 cells inhibition of histamine-induced calcium influx by cell based assay; format: functional, PC-3
[11] = target: T5, Thromboxane A2 receptor (Homo sapiens, UniProt P21731)
T5 sequence (P21731 whole entry): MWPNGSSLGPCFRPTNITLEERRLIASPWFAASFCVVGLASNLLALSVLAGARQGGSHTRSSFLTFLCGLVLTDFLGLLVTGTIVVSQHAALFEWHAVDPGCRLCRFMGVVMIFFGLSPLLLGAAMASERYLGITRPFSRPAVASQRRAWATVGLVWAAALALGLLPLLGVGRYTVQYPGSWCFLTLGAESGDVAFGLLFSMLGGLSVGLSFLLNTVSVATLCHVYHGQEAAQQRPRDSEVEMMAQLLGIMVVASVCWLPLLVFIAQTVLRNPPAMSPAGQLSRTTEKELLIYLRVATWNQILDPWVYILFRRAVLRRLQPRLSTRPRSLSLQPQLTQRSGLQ
Description: Binding affinity to TXA2 receptor receptor

[12] = target: T4, Histamine H1 receptor; experiment: Binding affinity to histamine H1 receptor
[13] = target: T6, Type-1 angiotensin II receptor (Homo sapiens, UniProt P30556)
T6 sequence (P30556 whole entry): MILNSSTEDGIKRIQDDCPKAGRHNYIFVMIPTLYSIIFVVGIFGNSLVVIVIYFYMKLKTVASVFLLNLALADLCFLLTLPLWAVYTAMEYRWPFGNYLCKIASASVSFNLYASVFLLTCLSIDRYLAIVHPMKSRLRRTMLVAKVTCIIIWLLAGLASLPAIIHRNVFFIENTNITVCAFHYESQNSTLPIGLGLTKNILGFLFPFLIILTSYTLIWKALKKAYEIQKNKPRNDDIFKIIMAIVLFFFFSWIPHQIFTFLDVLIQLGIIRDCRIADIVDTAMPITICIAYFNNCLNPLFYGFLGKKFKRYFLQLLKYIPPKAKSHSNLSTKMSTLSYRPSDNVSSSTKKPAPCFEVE
Description: Binding affinity to AT1 receptor

[14] = tested on: Human immunodeficiency virus 1; experiment: Antiviral activity against Human immunodeficiency virus 1 ADA; format: functional, organism-based

T4 sequence (P35367 whole entry): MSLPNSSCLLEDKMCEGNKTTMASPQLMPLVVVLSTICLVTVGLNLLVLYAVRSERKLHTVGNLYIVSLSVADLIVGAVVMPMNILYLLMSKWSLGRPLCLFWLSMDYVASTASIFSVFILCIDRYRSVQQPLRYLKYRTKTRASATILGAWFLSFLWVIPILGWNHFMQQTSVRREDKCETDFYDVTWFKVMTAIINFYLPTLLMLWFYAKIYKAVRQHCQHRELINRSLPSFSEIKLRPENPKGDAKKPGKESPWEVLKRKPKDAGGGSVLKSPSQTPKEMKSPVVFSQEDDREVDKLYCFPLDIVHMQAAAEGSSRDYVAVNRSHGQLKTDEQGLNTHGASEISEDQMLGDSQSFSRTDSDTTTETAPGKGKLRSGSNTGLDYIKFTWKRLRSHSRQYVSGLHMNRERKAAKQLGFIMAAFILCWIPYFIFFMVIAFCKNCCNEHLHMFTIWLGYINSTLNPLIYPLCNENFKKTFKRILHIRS
Sequence of C-C chemokine receptor type 5 (P51681 whole entry): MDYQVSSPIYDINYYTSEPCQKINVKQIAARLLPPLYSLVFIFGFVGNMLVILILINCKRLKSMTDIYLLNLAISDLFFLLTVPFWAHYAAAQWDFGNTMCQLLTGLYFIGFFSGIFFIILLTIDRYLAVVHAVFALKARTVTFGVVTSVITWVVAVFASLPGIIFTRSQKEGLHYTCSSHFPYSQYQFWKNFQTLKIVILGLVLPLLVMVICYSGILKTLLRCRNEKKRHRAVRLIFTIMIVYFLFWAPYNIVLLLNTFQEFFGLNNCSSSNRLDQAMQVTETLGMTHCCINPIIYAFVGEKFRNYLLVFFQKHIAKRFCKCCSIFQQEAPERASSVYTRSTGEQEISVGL

## CC(C)(O)CC[C@H](C[C@H](O)[C@H](Cc1cccc(F)c1)NC(=O)c1cnc2ccccc2n1)C(N)=O
[1]
  Ki: 1.32 µM
[2]
  Ki: 0.066 µM

## Cc1ccc(S(=O)(=O)NC(=O)N2CCC(N3CCC(Oc4ccc(Cl)c(Cl)c4)CC3)CC2)cc1
[3]
  logP: 3.8

## NCC1CCCN(C(=O)c2ccc3c(c2)C(C(=O)NC2CCN(C/C4=C/CCCCCCC4)CC2)c2ccccc2O3)C1 (stereo unspecified)
[4]
  Ki: 0.0018 µM

## CO[C@@H]1COCC[C@@H]1NC1CC[C@@](C(=O)N2CCc3ncc(C(F)(F)F)cc3C2)(C(C)C)C1 (stereo partly specified)
[5]
  IC50: 0.005 µM

## NC(=O)c1ccc(CNC(=O)NC[C@@H]2CN(Cc3ccc(Cl)c(Cl)c3)CCO2)cc1
[6]
  half-life: 2.8 h
[7]
  IC50: 0.01 µM
[8]
  bioavailability: 89%
[3]
  logP: 2.2

## Cc1ccc(C(=O)N2CCC(=CC(=O)N[C@@H]3CCN(Cc4ccc5cc(F)ccc5c4)C3)CC2)nn1
[9]
  Ki: 0.0018 µM
[10]
  Ki: 0.047 µM

## O=C(O)Cc1ccc2c(c1)/C(=C/Cn1cnc3ccccc31)c1ccccc1CO2
[11]
  Ki: 0.015 µM

## O=C(O)Cc1ccc2c(c1)/C(=C/CN1CCCC(Cc3ccccc3)C1)c1ccccc1CO2 (stereo unspecified)
[11]
  Ki: 0.74 µM
[12]
  Ki: 0.02 µM

## Cc1noc(NS(=O)(=O)c2ccccc2-c2ccc(-c3ncco3)cc2)c1C
[13]
  Ki: > 10 µM

## Cc1nnc(C(=O)NC(C)(C)c2nc(C(=O)NCc3ccc(F)cc3)c(O)c(=O)n2C)o1
[4]
  Ki: 0.005 µM
[3]
  logP: 2.4

## CN(C)C/C=C1\c2ccccc2COc2ccc(CC(=O)O)cc21
[11]
  Ki: > 1 µM

## CCOc1ccc(-n2c([C@@H](C)N(Cc3cccnc3)C(=O)Cc3ccc(OC(F)(F)F)cc3)nc3ncccc3c2=O)cc1
[3]
  logP: 3.8

## CCO/N=C(\c1ccc(Br)cc1)C1CCN(C2(C)CCN(C(=O)c3c(C)cc[n+]([O-])c3C)CC2)CC1 [ANCRIVIROC]
[14]
  IC50: 0.0006 µM
[2]
  Ki: 0.002 µM
